Data on 26 compounds can be found in patent US8642657B2 (Gruenenthal GmbH, priority 2003, dated 2014).

Data set [1] deals with T1, rat VR1 (Rattus norvegicus, UniProt O35433).
T1 construct: expressed in transfected cells
The data set can be described thus: [3H]resiniferatoxin (RTX) competition binding assay, VR1-transfected CHO cells. As for the experimental part:
The pUHG102 VR1 plasmid was transfected into CHO cells containing the pTet Off regulatory plasmid (Clontech). In these cells, expression of the VR1 is repressed in the presence of tetracycline but is induced upon removal of the antibiotic. Stable clones were isolated in culture medium containing puromycin (10 μg/mL) and maintained in HAM F12 medium supplemented with tetracycline (1 μg/mL), 5 μg/ml geniticin, 25 mM HEPES, 10% FBS. Cells utilized for assays were grown in culture medium without antibiotic for 48 h before use. Cells were seeded in T75 cell culture flasks in media without antibiotics and grown to approximately 90% confluence. The flasks were then washed with PBS and harvested in 0.25% trypsin, 1 mM EDTA. The cells were pelleted by gentle centrifugation and stored at −20° C. until assay.
Competition Binding Assay
Binding studies with [^3H]resiniferatoxin (RTX) were carried out as described previously with minor modifications (Szallasi et al., 1992). Binding assay mixtures were set up on ice and contained 50-100 pM [^3H]RTX, various concentrations of competing ligands, 0.25 mg/mL BSA (Cohn fraction V), and about 5×10^5 VR1-transfected cells. The final volume was adjusted to 350 μL with DPBS with Ca^2+ and Mg^2+ and 0.25 mg/mL bovine serum albumin. Non-specific binding was determined in the presence of 100 nM nonradioactive RTX. The binding reaction was initiated by transferring the assay mixtures to a 37° C. water bath and was terminated after a 60 min incubation period by cooling the tubes on ice. To reduce non-specific binding, 200 μg/ml α-glycoprotein was added. Membrane-bound RTX was then separated from the free by pelleting the membranes in a Beckman 12 benchtop centrifuge (15 min, maximal velocity), the tips of the tubes containing the pellets were cut off, and the radioactivity was determined by scintillation counting. Equilibrium binding parameters (Ki and cooperativity) were determined by fitting the Hill equation to the measured values with the aid of the program MicroCal Origin 6.0.
(§1) Initial stocks were dissolved in DMSO. For the binding assays, compounds were diluted in with DPBS with Ca^2+ and Mg^2+ and 0.25 mg/mL bovine serum albumin. For the calcium uptake assays, compounds were diluted in DMEM with 0.25 mg/mL bovine serum albumin.

For data set [2], the target named is T1, rat VR1. Briefly: 45Ca2+-uptake assay in CHO/VR1 cells, antagonism of capsaicin-stimulated uptake. In kind it is cell-based. Conditions: 45Ca2+ uptake stimulated by 50 nM capsaicin. As for the experimental part:
as §1
Molecules were characterized to determine whether they were full agonists, partial agonists, or antagonists. For studies of ^45Ca^2+ uptake by CHO/VR1 cells (Tet-off cells), the cells were plated in 24-well plates to yield a cell density 20-40% of that required to produce confluence. The next day the medium was changed to remove the tetracycline and induce VR1 expression. Experiments were performed approximately 36-40 hours after induction. For ^45Ca^2+ uptake assay, cells were incubated for 5 min at 37° C. in a total volume of 400 μL of serum free DMEM (containing 1.8 mM CaCl2) in the presence of 0.25 mg/mL BSA (Sigma), 1 μCi/mL ^45Ca^2+ (5-30 Ci/g from ICN, CA), and increasing concentrations of the compound to be tested. Immediately after the incubation, extracellular ^45Ca^2+ was removed by washing the cells three times with cold DPBS (containing 1.8 mM CaCl2). Then 400 μl RIPA buffer (50 mM Tris pH 7.4; 150 mM NaCl; 1% Triton X-100; 0.1% SDS; 1% sodium deoxycholate) was added to each well in order to lyse the cells. Plates were shaken slowly for 20 min; then 306 μL of cell lysate was transferred from each well into a scintillation vial and radioactivity was determined by scintillation counting. For each data point in each experiment, four wells were assayed. Data from these experiments were analyzed by computer fit to the Hill equation. At least 3 separate experiments were carried out for each compound. In order to determine antagonist activity, studies were performed in exactly the same fashion with the exception that 50 nM capsaicin was added to the assay mixture to stimulate ^45Ca^2+ uptake.

Setting [3] is: competition with [3H]RTX, rat VR1 in CHO cells, read-out: Ki (nM) Binding Affinity.

T1 sequence (O35433 whole entry): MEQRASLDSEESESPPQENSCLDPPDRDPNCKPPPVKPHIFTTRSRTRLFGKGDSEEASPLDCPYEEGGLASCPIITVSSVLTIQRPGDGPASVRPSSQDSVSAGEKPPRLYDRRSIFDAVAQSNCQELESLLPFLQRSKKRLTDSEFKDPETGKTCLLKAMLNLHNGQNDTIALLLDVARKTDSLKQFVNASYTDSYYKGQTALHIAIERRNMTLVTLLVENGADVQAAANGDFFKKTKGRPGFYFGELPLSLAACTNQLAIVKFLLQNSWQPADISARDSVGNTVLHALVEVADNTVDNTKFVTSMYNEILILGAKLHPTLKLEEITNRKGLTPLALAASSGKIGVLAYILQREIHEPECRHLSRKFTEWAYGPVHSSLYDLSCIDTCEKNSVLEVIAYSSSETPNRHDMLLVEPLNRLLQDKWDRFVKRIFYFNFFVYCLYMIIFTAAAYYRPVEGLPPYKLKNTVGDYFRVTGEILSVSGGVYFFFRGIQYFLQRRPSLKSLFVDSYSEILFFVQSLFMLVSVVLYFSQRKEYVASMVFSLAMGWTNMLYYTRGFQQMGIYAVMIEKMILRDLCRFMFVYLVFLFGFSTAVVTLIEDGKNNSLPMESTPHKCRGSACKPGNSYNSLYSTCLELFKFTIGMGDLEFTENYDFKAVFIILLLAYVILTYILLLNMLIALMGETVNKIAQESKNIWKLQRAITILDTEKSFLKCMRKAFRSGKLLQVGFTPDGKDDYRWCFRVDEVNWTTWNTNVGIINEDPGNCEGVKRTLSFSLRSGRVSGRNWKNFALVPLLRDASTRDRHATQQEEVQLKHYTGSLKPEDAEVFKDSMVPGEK

Usually Ki stands for a dissociation constant, usually derived from enzyme kinetics or from competition with a known ligand. As usually defined, the melting point is the temperature of the solid-liquid transition. `CC(C(=O)NCc1ccc(C(C)(C)C)cc1)c1ccc(NS(C)(=O)=O)c(C(=O)OC(C)(C)C)c1` (centres unmarked) [1-57, N-(4-tert-Butylbenzyl)-2-[3-(t-butoxycarbonyl)-4-(methylsulfonylamino)phenyl]propionamide] gave a melting point of 75 to 77 °C. Besides, the Ki in data set [1] (setting [3]) was found to be 6730 nM.

`CC(C(=O)NCc1ccc(C(C)(C)C)cc1)c1ccc(NS(C)(=O)=O)c(C(=O)O)c1` (centres unmarked) [1-58, N-(4-tert-Butylbenzyl)-2-[3-carboxyl-4-(methylsulfonylamino)phenyl]propionamide] returned a melting point of 180 to 183 °C.

For the compound `CC(C(=O)NCc1ccc(C(C)(C)C)cc1)c1ccc(NS(C)(=O)=O)c(C(=O)NCc2ccccc2)c1` (centres unmarked) [1-60, N-(4-tert-Butylbenzyl)-2-[3-(benzylamino)carbonyl-4-(methylsulfonylamino)phenyl]propionamide], the melting point is 79 to 81 °C. Besides, in data set [1] (setting [3]), the Ki came out at 3710 nM.

With `CC(C(=O)NCc1ccc(C(C)(C)C)cc1)c1ccc(NS(C)(=O)=O)c(N2CCCCC2)c1` (centres unmarked) [1-61, N-(4-tert-Butylbenzyl)-2-[3-piperidino-4-(methylsulfonylamino)phenyl]propionamide], the melting point came out at 125 °C.

In the case of `CC(C(=O)NCc1ccc(C(C)(C)C)cc1)c1ccc(NS(C)(=O)=O)c(N2CCOCC2)c1` (centres unmarked) [1-62, N-(4-tert-Butylbenzyl)-2-[3-morpholino-4-(methylsulfonylamino)phenyl]propionamide], the melting point was found to be 78 °C.

Take `CC(C(=O)NCc1ccc(C(C)(C)C)cc1)c1ccc(NS(C)(=O)=O)c(N2CCN(C(=O)OC(C)(C)C)CC2)c1` (centres unmarked) [1-63, N-(4-tert-Butylbenzyl)-2-[3-(N-boc)piperazino-4-(methylsulfonylamino)phenyl]propionamide]: the melting point was 103 °C.

In the case of `CC(C(=O)NCc1ccc(C(C)(C)C)cc1)c1ccc(NS(C)(=O)=O)c(N2CCNCC2)c1` (centres unmarked) [1-64, N-(4-tert-Butylbenzyl)-2-[3-piperazino-4-(methylsulfonylamino)phenyl]propionamide], the melting point worked out at 92 °C.

Consider `Cc1ccc(CNC(=O)C(C)c2ccc(NS(C)(=O)=O)c(F)c2)cc1` (centres unmarked) [4-7, N-(4-Methylbenzyl)-2-[3-fluoro-4-(methylsulfonylamino)phenyl]propionamide], for which the melting point worked out at 166 °C.

Take `COc1ccc(CNC(=O)C(C)c2ccc(NS(C)(=O)=O)c(F)c2)cc1` (centres unmarked) [4-9, N-(4-Methoxybenzyl)-2-[3-fluoro-4-(methylsulfonylamino)phenyl]propionamide]: the melting point was found to be 138 °C. The affinity in data set [2] corresponds to a Ki of 1350 nM.

For the compound `CC(C(=O)NC1CCCc2ccccc21)c1ccc(NS(C)(=O)=O)c(F)c1` (centres unmarked) [4-13, N-(1,2,3,4-Tetrahydro-1-naphthalenyl)-2-[3-fluoro-4-(methylsulfonylamino)phenyl]propionamide], the melting point was 116 to 117 °C.

In turn, `Cc1ccc(C=CCNC(=O)C(C)c2ccc(NS(C)(=O)=O)c(F)c2)cc1C` (centres unmarked) [4-18, N-[3-(3,4-Dimethylphenyl)-2-propenyl]-2-[3-fluoro-4-(methylsulfonylamino)phenyl]propionamide] gave a melting point of 144 to 146 °C.

Consider `CC(C(=O)NCCCc1ccc(Cl)cc1)c1ccc(NS(C)(=O)=O)c(F)c1` (centres unmarked) [4-19, N-[3-(4-Chlorophenyl)propyl]-2-[3-fluoro-4-(methylsulfonylamino)phenyl]propionamide], for which the melting point was 141 to 143 °C.

`CC(C(=O)NCC=Cc1ccc(Cl)cc1)c1ccc(NS(C)(=O)=O)c(F)c1` (centres unmarked) [4-20, N-[3-(4-Chlorophenyl)-2-propenyl]-2-[3-fluoro-4-(methylsulfonylamino)phenyl]propionamide] yielded a melting point of 151 to 153 °C.

Consider `CC(C(=O)NOCc1ccccc1)c1ccc(NS(C)(=O)=O)c(F)c1` (centres unmarked) [4-21, N-Benzyloxy-2-[3-fluoro-4-(methylsulfonylamino)phenyl]propionamide], for which the melting point lay in the range of 182 to 183 °C. Moreover, the inhibition constant Ki in data set [1] (setting [3]) is 9420 nM.

With `CC(C(=O)NC(c1ccccc1)c1ccccc1)c1ccc(NS(C)(=O)=O)c(F)c1` (centres unmarked) [4-22, N-Benzhydryl-2-[3-fluoro-4-(methylsulfonylamino)phenyl]propionamide], the melting point lay within 160 to 161 °C. Also, the inhibition constant Ki in data set [1] (setting [3]) came to 5860 nM.

`CC(C(=O)NCC=C(c1ccccc1)c1ccccc1)c1ccc(NS(C)(=O)=O)c(F)c1` (centres unmarked) [4-25, N-(3,3-Diphenyl-2-propenyl)-2-[3-fluoro-4-(methylsulfonylamino)phenyl]propionamide] had a melting point of 155 to 157 °C.

`COc1cc(C(C)C(=O)NCC(COC(=O)C(C)(C)C)Cc2ccc(C(C)(C)C)cc2)ccc1NS(C)(=O)=O` (centres unmarked) [5-6, N-[2-(4-tert-Butylbenzyl)-3-pivaloyloxypropyl]-2-[3-methoxy-4-(methylsulfonylamino)phenyl]propionamide] had a melting point of 54 to 57 °C. For the same compound, the inhibitory constant (Ki) in data set [1] (setting [3]) was 24 nM.

As for `C[C@H](C(=O)N[C@H](COC(=O)C(C)(C)C)Cc1ccccc1)c1ccc(NS(C)(=O)=O)c(F)c1` [6-2, N—[(S)-1-Benzyl-2-(pivaloyloxy)ethyl]-(S)-2-[3-fluoro-4-(methylsulfonylamino)phenyl]propionamide], the melting point lay within 125 to 126 °C.

Turning to `Cc1ccc(CCCNC(=O)C2(c3ccc(NS(C)(=O)=O)c(F)c3)CC2)cc1C` [12-5, N-[3-(3,4-Dimethylphenyl)propyl]-1-[3-fluoro-4-(methylsulfonylamino)phenyl]cyclopropanecarboxamide], the melting point was in the range of 127 to 128 °C.

Compound `CC(C)(C)c1ccc(CNC(=O)C2(c3ccc(NS(C)(=O)=O)c(F)c3)CC2)cc1` [12-8, N-(4-tert-Butylbenzyl)-1-[3-fluoro-4-(methylsulfonylamino)phenyl]cyclopropanecarboxamide] returned a melting point of 200 to 203 °C.

`CC(NC(=S)NCc1ccc(C(C)(C)C)cc1)c1ccc(NS(C)(=O)=O)c(C(=O)O)c1` (centres unmarked) [15-5, N-(4-t-Butylbenzyl)-N′-{1-[3-carboxy-4-(methylsulfonylamino)phenyl]ethyl}thiourea]: the melting point was 189 to 192 °C. The same compound showed a Ki in data set [1] of 2770 nM.

Consider `C[C@H](NC(=S)NCc1ccc(C(C)(C)C)cc1)c1ccc(NS(C)(=O)=O)cc1` [16-6, N-(4-t-Butylbenzyl)-N′-{(1S)-1-[4-(methylsulfonylamino)phenyl]ethyl}thiourea], for which the melting point amounted to 101 °C. For the same compound, the affinity in data set [1], expressed as Ki, was 3590 nM.

Compound `CC(NC(=S)NC(COC(=O)C(C)(C)C)Cc1ccccc1)c1ccc(NS(C)(=O)=O)cc1` [19-15, N-[(2R)-3-phenyl-1-pivaloyloxy-2-propyl]-N′-[(S)-α-methyl-4-(methylsulfonylamino)benzy]thiourea] returned a melting point of 61 to 64 °C.

With `CC(C)(C)c1ccc(CNC(=S)NC(C)(C)c2ccc(NS(C)(=O)=O)cc2)cc1` [21-7, N-(4-t-Butylbenzyl)-N′-{1-methyl-1-[4-(methylsulfonylamino)phenyl]ethyl}thiourea], the melting point lay within 161 to 164 °C. In data set [2], this compound had an inhibition constant Ki of 1830 nM.

For `CC(NC(=O)C=Cc1ccc(C(C)(C)C)cc1)c1ccc(NS(C)(=O)=O)c(F)c1` (centres unmarked) [24-3, N-{1-[3-Fluoro-4-(methylsulfonylamino)phenyl]ethyl}-3-(4-tert-butylphenyl)-2-propenamide], the melting point fell in the range of 154 to 156 °C.

In data set [2], “N-{1-[3-Fluoro-4-(methylsulfonylamino)phenyl]ethyl}-3-(4-chlorophenyl)propenamide [24-6]” came in with a Ki of 5650 nM.
